Values joined by “and” are separate entries in the source; they are usually repeats but may differ in a detail not shown here. Equal entries are not always repeated. Structures can show the parent of a compound that is named as a salt.
Legend:
18C-18R duplex [1] = experiment: UV melting (thermal denaturation) and ΔTm analysis, 18C-18R duplex; assay type: binding, HIV-1; details: for Ka (ΔTm-derived association constant): extrapolated to 25° C.; for greater affinity for the 18C-18R duplex than for the 18C-18D duplex: 18C-18R versus 18C-18D; for enhancement of thermal stability of the duplex (ΔTm): 18C-18R, drug to duplex ratio (rdup) 3.0, FIG. 3a
Description: All UV absorbance experiments were conducted on an AVIV Model 14DS Spectrophotometer (Aviv Associates; Lakewood, N.J.) equipped with a thermoelectrically controlled cell holder. A quartz cell with a 1 cm pathlength was used for all the absorbance studies. Absorbance versus temperature profiles were measured at 274 nm with a 6 sec averaging time. The temperature was raised in 0.5° C. increments, and the samples were allowed to equilibrate for 1 min at each temperature setting. In these thermal denaturation studies, 18C-18R and 18C-18D solutions were […] in duplex and contained aminoglycoside at concentrations ranging from 0 to 12 μM. The duplex solutions were preheated for 5 min at 85° C. and then cooled to room temperature prior to addition of the drug. The buffer solutions for the UV melting experiments contained 10 mM PIPES (pH 6.0) and 5 mM MgCl2. For each optically detected transition, the melting temperature (Tm) was determined. Marky, L. A. & Breslauer, K. J. Calculating thermodynamic data for transitions of any molecularity from equilibrium melting curves, Biopolymers 26, 1601-1620 (1987).
The ΔTm method described below was used to derive aminoglycoside-duplex association constants (Ka). Measured aminoglycoside-induced changes in the thermal stability of the host duplexes (FIG. 3) were used to estimate the apparent drug-duplex association constants at Tm (KTm) from the following expression (Crothers, D. M. Statistical thermodynamics of nucleic acid melting transitions with coupled binding equilibria, Biopolymers 10, 2147-2160 (1971)): [formula]
In this expression, TmO and Tm are the melting temperatures of the drug-free and drug-bound duplex, respectively, n is the number of drug molecules bound per duplex, ΔHdup is the enthalpy change for the melting of the duplex in the absence of bound drug, and L is the free drug concentration at Tm (which can be estimated by one half the total drug concentration). Values of ΔHdup for the 18C-18R and 18C-18D duplexes were determined from the shapes of their UV melting profiles using the following relationship (Marky, L. A. & Breslauer, K. J. Calculating thermodynamic data for transitions of any molecularity from equilibrium melting curves, Biopolymers 26, 1601-1620 (1987)): [formula]
where α is the fraction of single strand. This calculation yielded ΔHdup values of 157.8 kcal/mol for the 18C-18R duplex and 130.3 kcal/mol for the 18C-18D duplex. For meaningful comparisons, the calculated apparent binding constants at Tm should be extrapolated to a common reference temperature using the standard relationship: [formula]
where ΔHb is the enthalpy of drug binding.

18C-18R duplex [2] = experiment: Isothermal titration calorimetry (ITC), 18C-18R duplex; assay type: binding, HIV-1; details: for ΔHb (binding enthalpy): 18C-18R duplex, ITC at 25° C.
Description: Isothermal calorimetric measurements were performed at 25° C. on a MicroCal VP-ITC (MicroCal, Inc., Northampton, Mass.). In a typical experiment, 5 μl aliquots of 500 μM aminoglycoside were injected from a 250 μl rotating (430 RPM) syringe into an isothermal sample chamber containing 1.31 mL of either a 18C-18R solution that was 10 μM in duplex or a 18C-18D solution that was 15 μM in duplex. Each experiment of this type was accompanied by the corresponding control experiment in which 5 μL aliquots of 500 μM drug were injected into a solution of buffer alone. The duration of each injection was 5 seconds and the delay between injections was 240 seconds. The initial delay prior to the first injection was 60 seconds. Each injection generated a heat burst curve (μcal/sec vs. sec). The area under each curve was determined by integration [using the Origin version 5.0 software (MicroCal, Inc., Northampton, Mass.)] to obtain a measure of the heat associated with that injection. The heat associated with each drug-buffer injection was subtracted from the corresponding heat associated with each drug-duplex injection to yield the heat of drug binding for that injection. The calorimeter was calibrated both electronically and chemically. Pilch, D. S., Kirolos, M. A., Liu, X., Plum, G. E. & Breslauer, K. J. Berenil [1,3-bis-(4′-amidinophenyl)triazene] binding to DNA duplexes and to a RNA duplex: Evidence for both intercalative and minor groove binding properties, Biochemistry 34, 9962-9976 (1995). All duplex solutions were preheated for 5 minutes at 85° C. and then cooled to room temperature prior to their use in the ITC experiments. The buffer solutions for the ITC experiments contained 10 mM PIPES (pH 6.0) and 5 mM MgCl2.
Table 1 summarizes the apparent association constants at 25° C. that were calculated using equations (1)-(3) for neomycin and paromomycin binding to the 18C-18R and 18C-18D duplexes. The drug binding enthalpies (ΔHb) required for extrapolation of the binding constants at Tm to common reference temperature of 25° C. using equation (3) were determined using isothermal titration calorinietry (ITC). […] Each of the heat burst curves in FIG. 4 corresponds to a single drug injection, with the seven injections resulting in a final drug to duplex ratio (rdup) of either 0.83 (when 18C-18D served as the target duplex) or 1.25 (when 18C-18R served as the target duplex). The areas under these heat burst curves were determined by integration to yield the associated injection heats. For each titration, the seven injection heats were similar in magnitude, an observation consistent with all of the injected drug being bound by the host duplex. These injection heats were corrected by subtraction of the corresponding dilution heats derived from the injection of identical amounts of drug into buffer alone. The resulting corrected injection heats then were divided by the total concentration of injected drug and averaged to yield the ΔHb values listed in Table 1.

| Compound | Ka (ΔTm-derived association constant) (18C-18R duplex [1]; 18C-18R duplex) | greater affinity for the 18C-18R duplex than for the 18C-18D duplex (18C-18R duplex [1]) | enhancement of thermal stability of the duplex (ΔTm) (18C-18R duplex [1]) | ΔHb (binding enthalpy) (18C-18R duplex [2]) | ΔHb (binding enthalpy) (18C-18R duplex [2]; listed as Paromomycin) | difference in affinity, neomycin greater than paromomycin (18C-18R duplex [1]; 18C-18R duplex) | greater affinity for the 18C-18R duplex than for the 18C-18D duplex (18C-18R duplex [1]; trisulfate trihydrate) | ΔHb (binding enthalpy) (18C-18R duplex [2]; listed as Neomycin, trisulfate trihydrate) | ΔHb (binding enthalpy) (18C-18R duplex [2]; trisulfate trihydrate) | binding stoichiometry (18C-18R duplex [2]; ITC, 18C-18R) |
| --- | --- | --- | --- | --- | --- | --- | --- | --- | --- | --- |
| NC[C@@H]1O[C@H](O[C@H]2[C@@H](O)[C@H](O[C@@H]3[C@@H](O)[C@H](N)C[C@H](N)[C@H]3O[C@H]3O[C@H](CO)[C@@H](O)[C@H](O)[C@H]3N)O[C@@H]2CO)[C@H](N)[C@@H](O)[C@@H]1O [paromomycin, paromomycin sulfate] | (4.3 ± 1.6) × 10^5 M^−1 | 2 fold | 1.4 °C | -4.5 kcal/mol | -4.5 ± 0.1 kcal/mol |  |  |  |  |  |
| Neomycin trisulfate trihydrate | (8.6 ± 1.5) × 10^6 M^−1 |  | 4.8 °C |  |  | 20 fold | ≈ 5 fold and 5 fold | -8.8 ± 0.1 kcal/mol | -8.8 kcal/mol | approximately five |

Source: patent publication US20030069194A1, “Inhibition of viral replication by targeting RNA-DNA complexes” (priority 2001, published 2003)
